# Laboratory results taken from publication PMC8259857, “Anti-tubercular activity and molecular docking studies of indolizine derivatives targeting mycobacterial InhA enzyme” (Journal of Enzyme Inhibition and Medicinal Chemistry, 2021).
# Columns and labels:
# [1] = system: susceptible H37Rv MTB strain (ATCC 25177); experiment: Resazurin Microplate Assay (REMA), whole-cell anti-tubercular activity against H37Rv; type: cell-based, Mycobacterium tuberculosis; conditions: for MIC: Mycobacterium tuberculosis, read-out: MIC H37Rv; for MIC H37Rv: H37Rv ATCC 25177, NA: not active at the concentration range (0.2–64 μg/mL)
SMILES,MIC [1],MIC H37Rv [1],melting point
CCOC(=O)c1cc(C(=O)c2ccc(Cl)cc2)n2ccccc12 [Compound 2b],8 µg/mL,,
CCOC(=O)c1cc(C(=O)c2ccc(Br)cc2)n2ccccc12 [Compound 2c],32 µg/mL,,
CCOC(=O)c1cc(C(=O)c2ccc([N+](=O)[O-])cc2)n2ccccc12 [Compound 2d],8 µg/mL,,
CCOC(=O)c1cc(C(=O)c2ccc(C)cc2)n2ccccc12 [Compound 2e],,completely abolished the activity,
CCOC(=O)c1cc(C(=O)c2ccc(C#N)cc2)n2ccccc12 [Compound 2f],,completely abolished the activity,
CCOC(=O)c1c(C)c(C(=O)c2ccc(F)cc2)n2ccccc12 [Compound 3a],4 µg/mL,,
CCOC(=O)c1c(C)c(C(=O)c2ccc(Cl)cc2)n2ccccc12 [Compound 3b],32 µg/mL,,
CCOC(=O)c1c(C)c(C(=O)c2ccc([N+](=O)[O-])cc2)n2ccccc12 [Compound 3d],8 µg/mL,,
"CCOC(=O)c1c(C(=O)OCC)c2ccccn2c1C(=O)c1ccc(F)cc1 [Compound 4a, Diethyl-3-(4-fluorobenzoyl)indolizine-1,2-dicarboxylate]",8 µg/mL,,138 to 139 °C
"CCOC(=O)c1c(C(=O)OCC)c2ccccn2c1C(=O)c1ccc(Cl)cc1 [Compound 4b, Diethyl-3-(4-chlorobenzoyl)indolizine-1,2-dicarboxylate]",8 µg/mL,,137 to 138 °C
"CCOC(=O)c1c(C(=O)OCC)c2ccccn2c1C(=O)c1ccc([N+](=O)[O-])cc1 [Compound 4c, Diethyl-3-(4-nitrobenzoyl)indolizine-1,2-dicarboxylate]",32 µg/mL,,111 to 112 °C
"NNC(=O)c1ccncc1 [Isoniazid, reference compound]",< 0.2 µg/mL,,
"CO[C@H]1/C=C/O[C@@]2(C)Oc3c(C)c(O)c4c(O)c(c(/C=N/N5CCN(C)CC5)c(O)c4c3C2=O)NC(=O)/C(C)=C\C=C\[C@H](C)[C@H](O)[C@@H](C)[C@@H](O)[C@@H](C)[C@H](OC(C)=O)[C@@H]1C [Rifampicin, reference compound]",< 1 µg/mL,,
